# From patent US20250101032A1, “EXATECAN DERIVATIVES AND ANTIBODY-DRUG CONJUGATES THEREOF” (priority 2021, published 2025)
# How the values were obtained:
# physchem = conditions: 25 °C, pH 7.4, aqueous buffer, kinetic from dmso stock
# Method: In-vitro kinetic solubilities of the compounds in PBS pH 7.4 buffer at 25° C. were determined by diluting compounds from 100% dimethyl sulfoxide (DMSO) into PBS buffer and measuring absorbance at 490, 590 and 650 nm. Stock concentrations in 100% DMSO were provided at 1-6 mM in 100% DMSO. Kinetic solubilities were determined by diluting test compounds from 100% DMSO into PBS pH 7.4 buffer, as duplicate, 10 point 2-fold serial dilution starting at 100× dilution of stock DMS solution into PBS buffer in a clear, flat bottom polystyrene assay plates. Total assay volume was 200 microliters. Solutions were mixed by plate shaking, incubated for 30 m at 25° C., and absorbance was read at 490, 590 and 650 nm. […] in PBS buffer was used as a blank. For each test compound, average optical density (GD) at each concentration was determined by averaging the blank corrected sum of absorption at 490 nm, 590 nm and 650 nm, over duplicate measurements. Turbidity threshold optical density value was set as a sum of mean plus two standard deviations of the mean of absorbances at 490, 590 and 650 nm for 1% (v/v) DMSO in PBS pH 7.4 buffer. Highest soluble concentration (micromolar) corresponded to the highest concentration at which average optical density was below optical density value set for turbidity threshold (Table 4). Amiodarone and propranolol were used as low and high solubility controls respectively.
# SKBR3 = experiment: In vitro cytotoxicity assay (CellTiter-Glo), SKBR3; format: cell-based, Human; conditions: Homo sapiens, SK-BR-3, 144 h, read-out: Cytotoxicity IC50
# Method: (§1) Human tumor cell lines, SK-BR-3, NCI-H292, HT-29, MCF-7, NCI-N87, and FaDu were obtained from ATCC. NCI-H292, HT-29, MCF-7, and NCI-N87 cells were cultured in RPMI-1640 media (Gibco, Life Technologies) supplemented with 10% v/v heat inactivated FBS (Corning), FaDu cells were maintained in DMEM media (Gibco, Life Technologies) supplemented with 10% v/v heat inactivated FBS (Corning). SK-BR-3 cells were maintained in McCoys 5A medium (Gibco, Life Technologies) supplemented with 10% […] heat inactivated FBS (Corning) at 37° C. in a humidified incubator containing 5% CO2.
# (§2) Lyophilized compounds were dissolved in 100% dry DMSO, aliquots frozen and stored at −80° C. Concentration and purity of compound stock solutions in DMSO were determined by RP-HPLC Agilent 1100 platform with 1200 DAD and SofTA ELSD detectors, and the Agilent 6150 MS system (UV/VIS, ELSD purity and MS compound identity confirmation). Shimadzu 3.0 mm×30 mm XR ODS 2.2 μm column was run at 50° C., 1.5 mL/min. Solvent A: 0.1% Formic acid in water, Solvent B: 0.08% Formic acid in methanol-Gradient: 5%-100% B in 3.0 min, 100% solvent B for 0.3 min. Concentration of compounds in 100% DMSO determined by ELS ranged from 1-6 mM.
# (§3) Cells were plated in 96-well white flat-bottomed plates (Corning) at 2.0×10^3 cells per well in 100 μL culture medium. After incubation for 24 hours, test compounds were added at a range of concentrations as ten point serial dilution as duplicates or triplicates. Following further incubation for 6 days 37° C., 5% CO2, cell viability was assessed with the use of a CellTiter-Glo Luminescent Cell Viability Assay (Promega). Luminescence was measured using the GloMax instrument (Promega). […] For a subset of payloads, each treatment was independently repeated two to eight times, and IC50 values were averaged. […] Standard deviation (stdev) is shown as (N/A) for treatment performed once.
# HT29 = experiment: In vitro cytotoxicity assay (CellTiter-Glo), HT29; format: cell-based, Human; conditions: Homo sapiens, HT-29, 144 h, read-out: Cytotoxicity IC50
# Method: as §1, §2, §3
# NCI-H292 = experiment: In vitro cytotoxicity assay (CellTiter-Glo), NCI-H292; format: cell-based, Human; conditions: Homo sapiens, NCI-H292, 144 h, read-out: Cytotoxicity IC50
# Method: as §1, §2, §3
# MCF7 = experiment: In vitro cytotoxicity assay (CellTiter-Glo), MCF7; format: cell-based, Human; conditions: Homo sapiens, MCF7, 144 h, read-out: Cytotoxicity IC50
# Method: as §1, §2, §3
# NCI-N87 = experiment: In vitro cytotoxicity assay (CellTiter-Glo), NCI-N87; format: cell-based, Human; conditions: Homo sapiens, NCI-N87, 144 h, read-out: Cytotoxicity IC50
# Method: as §1, §2, §3
# FaDu = experiment: In vitro cytotoxicity assay (CellTiter-Glo), FaDu; format: cell-based, Human; conditions: Homo sapiens, FaDu, 144 h, read-out: Cytotoxicity IC50
# Method: as §1, §2, §3
# SKOV3 = experiment: In vitro cytotoxicity assay (CellTiter-Glo), SKOV3; format: cell-based; conditions: Homo sapiens, SK-OV-3, 144 h, read-out: Cytotoxicity IC50
# Method: (§4) Lyophilized compounds were dissolved in 100% dry DMSO, aliquots frozen and stored at −80° C. […] Shimadzu 3.0 mm×30 mm XR ODS 2.2 μm column was run at 50° C., 1.5 mL/min. Solvent A: 0.1% Formic acid in water, Solvent B: 0.08% Formic acid in methanol-Gradient: 5%-100% B in 3.0 min, 100% solvent B for 0.3 min.
# as §3
# BXPC3 = experiment: In vitro cytotoxicity assay (CellTiter-Glo), BXPC3; format: cell-based; conditions: Homo sapiens, BXPC-3, 144 h, read-out: Cytotoxicity IC50
# Method: as §4, §3
SMILES,solubility at 30 min (physchem) [µM],IC50 (SKBR3) [nM],IC50 (HT29) [nM],IC50 (NCI-H292) [nM],IC50 (MCF7) [nM],IC50 (NCI-N87) [nM],IC50 (FaDu) [nM],IC50 (SKOV3) [nM],IC50 (BXPC3) [nM]
CC[C@@]1(O)C(=O)OCc2c1cc1n(c2=O)Cc2c-1nc1cc(F)c(C)c3c1c2[C@@H](NC(=O)c1cn(CCO)nn1)CC3 [Compound 52],25,2.5,23.3,6.8,5.9,10.1,4.2,12.9,3.4
CC[C@@]1(O)C(=O)OCc2c1cc1n(c2=O)Cc2c-1nc1cc(F)c(C)c3c1c2[C@@H](NC(=O)Cc1cn(CCO)nn1)CC3 [Compound 66],21,7.3,78.1,24.7,23.9,30,7.9,43.3,9.8
CC[C@@]1(O)C(=O)OCc2c1cc1n(c2=O)Cc2c-1nc1cc(F)c(C)c3c1c2[C@@H](NC(=O)C1OC(O)C(O)C1O)CC3 (stereo partly drawn) [Compound 100],29,36,93.4,228,28.8,78.6,7,90.5,26.9
CC[C@@]1(O)C(=O)OCc2c1cc1n(c2=O)Cc2c-1nc1cc(F)c(C)c3c1c2[C@@H](NC(=O)c1ccc(CO)o1)CC3 [Compound 103],7,6.9,14.4,6,4.6,17.2,1.5,26.5,6.4
CC[C@@]1(O)C(=O)OCc2c1cc1n(c2=O)Cc2c-1nc1cc(F)c(C)c3c1c2[C@@H](NCCO)CC3 [Compound 105],25,0.9,2.1,1.7,1.4,1.6,1.3,1.8,0.6
CC[C@@]1(O)C(=O)OCc2c1cc1n(c2=O)Cc2c-1nc1cc(F)c(C)c3c1c2[C@@H](NCc1cn(CCO)nn1)CC3 [Compound 108],10,2.9,13.2,8.1,4.4,8.3,2.4,6.6,2.3
CC[C@@]1(O)C(=O)OCc2c1cc1n(c2=O)Cc2c-1nc1cc(F)c(C)c3c1c2[C@@H](NCc1cnnn1CCO)CC3 [Compound 109],17,7.3,56.8,26.1,12.8,29.3,8.3,32.4,10.8
CC[C@@]1(O)C(=O)OCc2c1cc1n(c2=O)Cc2c-1nc1cc(F)c(C)c3c1c2[C@@H](NS(=O)(=O)CCCO)CC3 [Compound 110],18,7.6,28.6,18.8,22.4,18.2,15.6,59.2,15.7
CC[C@@]1(O)C(=O)OCc2c1cc1n(c2=O)Cc2c-1nc1cc(F)c(C)c3c1c2[C@@H](Nc1c(NCC(O)CO)c(=O)c1=O)CC3 (stereo partly drawn) [Compound 115],23,62.8,155,128,47,127,56.1,174,55
CC[C@@]1(O)C(=O)OCc2c1cc1n(c2=O)Cc2c-1nc1cc(F)c(C)c3c1c2[C@@H](NC(=O)CCC(=O)NCC(O)CO)CC3 (stereo partly drawn) [Compound 117],30,474,2910,888,342,1450,234,1090,412
CC[C@@]1(O)C(=O)OCc2c1cc1n(c2=O)Cc2c-1nc1cc(F)c(C)c3c1c2[C@@H](NC(=O)NCC(O)CO)CC3 (stereo partly drawn) [Compound 118],30,23.9,291,88.4,45.9,96.6,17.5,96.7,52.7
CC[C@@]1(O)C(=O)OCc2c1cc1n(c2=O)Cc2c-1nc1cc(F)c(C)c3c1c2[C@@H](Nc1c(O)c(=O)c1=O)CC3 [Compound 129],22,169,282,208,79.3,300,92.9,265,134
CC[C@@]1(O)C(=O)OCc2c1cc1n(c2=O)Cc2c-1nc1cc(F)c(C)c3c1c2[C@@H](N(CCO)C(C)=O)CC3 [Compound 136],23,23.7,36.8,16.3,18.4,40.2,5.2,98.4,24.9
